Values of other authors in patent EP1844782A1 (priority 2006, dated 2007).

Tested on: EAE
Conditions: EAE (Craner et al., 2005)

O=C1NC(=O)C(c2ccccc2)(c2ccccc2)N1 [phenytoin]
ameliorates the inflammatory cell infiltrate in EAE: 75%
